In patent US6642003B2, “Human glucose-dependent insulin-secreting cell line” (Cedars-Sinai Medical Center, priority 2001, dated 2003):

Columns and labels:
ARIP cells [1] = test: RT-PCR of islet β-cell specific transcripts, ARIP cells; format: cell-based, rat
Method: (§1) After the treatment of ARIP and PANC-1 cells with GLP-1, Exendin-9, or vehicle, for the described length of time and the various doses, the culture medium was removed and the cells were washed (twice) with serum-free medium. Total RNA was isolated using the TRiazol-method (Gibco-BRL), and treated with DNase (Amplification Grade, GibcoBRL) in 20 mmol/l Tris-HCL (pH 8.4), 2 mmol/l MgCl2, and 50 mmol/l KCl to remove any traces of contaminating genomic DNA. RNA (2.5 μg) was then subjected to reverse transcription (RT reagents; Promega; Madison, Wis.). RT-PCR was undertaken in a volume of 50 μl of buffer containing 50 mmol/l KCl, 10 mmol/l Tris-HCl, 3.5 mmol/l MgCl2, 200 μmol/l each dNTPs, and 0.4 μmol/l each of sense and antisense primers to rat or human insulin (depending on the specific cell from which the RNA was extracted). Amplification was performed for 30 cycles at the denaturing temperature of 94° C. for 1 min, annealing temperature of 60° C. for 45 sec, and an extension temperature of 72° C. for 1 min. […] These included more irregular and variable cell shapes, with a cytoplasm less homogenous and “rougher” in appearance than control culture.
(§2) Treatment with GLP-1 induces the differentiation of ductal epithelial cells into insulin-producing cells. FIG. 2 illustrates a series of cell cultures grown with or without GLP-1 (10 nM) for 72 h. […] Preabsorption of the antibody with an excess of human recombinant insulin prevented the staining of insulin-positive GLP-1 treated cells (data not shown). While treatment with GLP-1 turned the majority of ARIP cells into […] For β-actin, the annealing temperature was raised to 64° C. for 1 min and gene-specific primers were used. For GLP-1-receptor (GLP-R) the annealing temperature used was 55° C. All other experimental conditions to amplify GLUT2, glucokinase, and GLP-R mRNAs were identical to those described for the amplification of insulin mRNA. RT and PCR conditions for human transcripts were identical to those described for rat mRNAs.
(§3) Southern blotting with species-specific full length cDNA probes for insulin, GLUT-2, glucokinase, GLP-1 receptor and β-actin was performed as previously described. Y. Wang, R. Perfetti, N. H. Greig, H. W. Holloway, K. A. DeOre, C. Montrose-Rafizadeh, D. Elahi, J. M. Egan, “Glucagon-like peptide-1 can reverse the age-related decline in glucose tolerance in rats.” J Clin Invest 99:2883-2889, 1997.

ARIP cells [2] = test: Immunofluorescence for IDX-1, ARIP cells; format: cell-based, rat
Method: Cells were cultured on monocoated chamber slides (Nalge Nunc International; Naperville, Ill.) in the presence of GLP-1 (10 nM), or vehicle, for 72 h.
For the detection of IDX-1, slightly different conditions were used. Briefly: the concentration of paraformaldehyde was decreased to 2%, and the concentration of Triton to permeabilize the cells was raised to 0.2% Triton-X-100. Cells were then washed with 0.01 M PBS three times for 3-5 min, and non-specific binding was inhibited by using 5% chick serum in 0.01 M PBS, at room temperature for 60 min in a humid chamber. A rabbit IDX-1 antibody directed against the N-terminus of the frog homologue of the IDX-1 gene was used as the primary antibody (1:500 diluted with 0.1% Triton-X 100, 1% BSA in 0.01 M PBS), and slides were incubated at 4° C. overnight in a humid chamber. After washing, cells were incubated with a fluorescein-conjugated goat anti-rabbit IgG antibody (Molecular Probes, Inc. Eugene, Oreg.) and incubated at room temperature for 1 hour in a humid chamber. Nuclei of cells stained with anti-IDX-1 antibody were visualized with Hoechst […] dye (Sigma, St. Louis, Mo.). The percentage of IDX-1 containing cells was evaluated by counting the number of IDX-1 “positive” cells divided by the total number of cells identified by nuclear staining.

PANC-1/IDX-1 cells [3] = test: RT-PCR of islet β-cell specific transcripts, PANC-1/IDX-1 cells; format: cell-based, human
Method: (§4) PANC-1 cells were transfected with a pcDNA3 construct (Invitrogen; Carlsbad, Calif.) harboring the wild-type full-length IDX-1 cDNA using LipoTAXI (Catalog N. 204110; Mammalian Transfection Kit, Stratagene; La Jolla, Calif.). Control cells were transfected with the vector alone. The selection of positive (i.e. transfected) cells was carried out by culturing the cells in the presence of 400 μg/ml of G418 sulfate (GN-04, Omega; Tarzana, Calif.).
as §1, §2, §3

PANC-1 cells [4] = test: Flow cytometric (FACS) analysis for insulin, parental PANC-1 cells; format: cell-based, human; settings: presence or absence of GLP-1; equivalent to assay background
Method: For fluorescence-activated cells sorting (FACS) analysis, cells were cultured in the presence of GLP-1 (10 nM), or vehicle, for 72 h, then washed with cold PBS (pH 7.4; three times) and incubated overnight, on ice, in PBS with 2% paraformaldehyde. After centrifugation, the cell pellet was resuspended in 400 μl of cold 0.1% Triton diluted in FACS buffer (PBS with 2% FCS). After several centrifugation and washes, the cells were resuspended in the assay buffer with of 10 μl of fluorescent-conjugated insulin antibody (Cat N. FM205, FITC: Chromaprobe, Inc; Mountain View, Calif.), in the presence of 10 μl of blocking antibody (anti-mouse IgG; Organon Teknika-Cappel, West Chester, Pa.). Control samples were treated with PBS, without the primary antibody, and then incubated with an […] FITC-conjugated control antibody (murine IgG; Chromaprobe Inc., Mountain View, Calif.). Flow cytometric analysis was performed with a FACScan[R] cytometer, using the LYSYS II program, and by fluorescence microscopy, as is well known in the art. See, e.g., E. Elstner, M. Linker-Israeli, J. Le, T. Umiel, P. Michl, J. W. Said, L. Binderup, J. C. […]

PANC-1/IDX-1 cells [5] = test: Morphological changes (hematoxylin and eosin), PANC-1/IDX-1 cells; format: cell-based, human; settings: GLP-1 10 nM for 72 h
Method: as §4
Hematoxylin and eosin staining was employed, in some experiments, to show the morphological changes observed under the experimental conditions described below.

PANC-1 cells [6] = test: RT-PCR of islet β-cell specific transcripts, parental PANC-1 cells; format: cell-based, human; settings: GLP-1 10 nM for 96 h
Method: as §1
Treatment with GLP-1 induces the differentiation of ductal epithelial cells into insulin-producing cells. FIG. 2 illustrates a series of cell cultures grown with or without GLP-1 (10 nM) for 72 h. […]

Substance: glucagon-like peptide-1 [GLP-1]
- time of first detection of GLUT2 mRNA (ARIP cells [1]; GLP-1 10 nM): 24 h
- time of first detection of glucokinase mRNA (ARIP cells [1]; GLP-1 10 nM): 72 h
- time of first detection of insulin mRNA (ARIP cells [1]; GLP-1 10 nM): 48 h
- lowest concentration of GLP-1 required for the initial detection of insulin mRNA (ARIP cells [1]; data not shown): 1 nM
- effect on expression level of IDX-1 (ARIP cells [2]; GLP-1 10 nM for 72 h): further increase
- cells expressing IDX-1 (ARIP cells [2]; GLP-1 or vehicle, 400 cells counted): approximately 70%
- time of GLUT2 mRNA expression (PANC-1/IDX-1 cells [3]; GLP-1 10 nM): 24 h
- time of earliest detection of insulin mRNA (PANC-1/IDX-1 cells [3]; GLP-1 10 nM): 48 h
- time of glucokinase mRNA expression (PANC-1/IDX-1 cells [3]; GLP-1 10 nM): 72 h
- GLP-1 dose at peak of insulin mRNA levels (PANC-1/IDX-1 cells [3]; data not shown): 10 nM
- GLP-1 dose at plateau of insulin mRNA levels (PANC-1/IDX-1 cells [3]; data not shown): 20 nM
- lowest dose of GLP-1 required to detect insulin mRNA (PANC-1/IDX-1 cells [3]; data not shown): 1 nM
- cells containing insulin in the cytoplasm (PANC-1 cells [4]): 1.4%
- morphological change: cell aggregation (PANC-1/IDX-1 cells [5]): further promoted the tendency of forming few-cells aggregates
- morphological change: cell size (PANC-1/IDX-1 cells [5]): increase in the size of individual cells
- RT-PCR for insulin (PANC-1 cells [6]): consistently negative
